Results on one compound are retold here after article PMC5958115, “A novel small molecule chaperone of rod opsin and its potential therapy for retinal degeneration” (Nature Communications, 2018).

One series deals with C57BL/6 mice. Put plainly: Retinoid cycle analysis: 11-cis-retinyl-oxime recovery after bleaching. In kind it is in vivo, mouse. The following applies: 200 mg kg^−1 bw i.p. 30 min before 10,000 lux 10 min; vs DMSO. On the procedure: To test if treatment with YC-001 affects visual pigment regeneration, we quantified the 11-cis-retinyl-oxime extracted from retinas of C57BL/6 mice after different periods of dark adaptation following exposure to bright light. Mice at 6 weeks of age were administered YC-001 at 200 mg kg^−1 bw via i.p. injection. At 30 min following YC-001 administration, eyes were dilated with 1% tropicamide. Mice then were anesthetized with a cocktail containing 20 mg mL^−1 of ketamine and 1.75 mg mL^−1 of xylazine at a dose of 4 μL g^−1 bw. Anesthetized mice were exposed to bright light with an intensity of 10,000 lux for 10 min to bleach about 90% of the rhodopsin pigment. Mice then were returned to the dark for recovery. Animals then were euthanized at 0, 2, 4, 6 or 24 h after bleaching and recovery in the dark, and their eyes were removed and homogenized in 1 mL of 1:1 PBS:ethanol mixture (v/v) containing 40 mM hydroxylamine. […] 11-cis-Retinyl-oxime released from the regenerated rhodopsin pigments were separated on an Agilent Sil column (5 µm, 4.6 × 250 mm) with an isocratic flow of 10% ethyl acetate in hexanes (1.5 mL min^−1) and detected at 325 nm. Amounts of 11-cis-retinyl-oximes per eye were quantified by normalizing the peak area to an 11-cis-retinyl-oxime standard. 11-cis-Retinyl-oximes were quantified in three eye samples per condition, and the means and s.d.s were calculated.

The nature of series [1]: Pharmacokinetics of YC-001 in mouse plasma. In kind it is in vivo, C57BL/6 mice. On the procedure:
C57BL/6J mice ranging from 8 to 12 weeks of age were purchased from Jackson Labs. For administration, YC-001 was dissolved in DMSO at 160 mg mL^−1. To obtain the blood clearance curve for YC-001, each animal was treated by i.p. injection of YC-001 at 200 mg kg^−1 bw. After administration, blood was collected at 5, 10, 15, 20, 30, 45, 60, and 90 min from the orbital sinus and dropped into K2EDTA blood collection tubes (FisherScientific). Mice were anesthetized with a ketamine/xylazine cocktail two min before blood collection. The blood samples were then incubated at 4 °C for 2 h before centrifugation at 1800×g for 20 min to collect the plasma in the supernatant. Plasma was mixed with twice the volume of methanol and then stored at −80 °C. YC-001 was extracted from the samples (300 to 600 μL) with 0.6 mL chloroform. The chloroform fraction was collected, dried, and the extracted organic compounds were dissolved in 0.25 mL of methanol. One hundred µL of each sample was injected onto an Eclipse XDB-C18 column (4.6 × 150 mm, 5 µm) and YC-001 was detected and quantified as described in the section Metabolic stability of YC-001.

Details of series [2]: method as in PubChem database, CID 2377702. As to conditions: ref PubChem database, CID 2377702; cited from earlier work.
In series [3] the test system is S. typhimurium TA1535, TA97a, TA98, TA100 and E. coli WP2. Description: Micro Ames bacterial mutation test, five strains, with or without S9. The following applies: 0.075-250 µg per well. On the procedure:
To determine the potential genotoxicity of YC-001, a Micro Ames test was performed by the Charles River Laboratories, Inc. The S9 microsomal fraction was obtained from Moltox Molecular Toxicology, Inc. (Boone, NC, USA). A premixture was prepared including 25 µL of S9 mix (10% v/v S9 fraction in 8 mM MgCl2, 33 mM KCl, 100 mM sodium phosphate buffer, pH 7.4, +S9) or phosphate buffer (0.2 M sodium phosphate, pH 7.4, no S9), 5 µL of bacterial culture (>1000 × 10^6 bacteria mL^−1) and 100 µL of molten top agar supplemented with 0.05 mM biotin and minimal histidine (0.05 mM) and minimal tryptophan (0.05 mM). The 24-well plates were prepared by adding 1.3 mL of minimal bottom agar (1.3% agar, Vogel-Bonner medium E and 0.25% glucose) to each well. A 10 µL aliquot of YC-001 working solution/negative/positive control was added to each well followed by addition of 130 µL of the premixture. The plates kept on a leveled surface for 1 h while the top agar solidified, then were incubated at 37 °C for 72 h. After this period, plates were stored at 4 °C before revertant colony counts were manually recorded using an inverted microscope. […]

Consider `O=C1OCC(c2ccc(Cl)s2)=C1c1cccs1` [YC-001], for which, in the series on C57BL/6 mice, the “recovery of 11-cis-retinyl-oxime after bleaching” value is recorded as “little difference”. Further, the k el in series [1] (C57BL/6J, mouse, plasma, intraperitoneal, 200 mg kg^−1 bw, estimated from T1/2 and C0, read-out: elimination rate constant (Ke) (converted)) is 0.000335 s⁻¹. The C0 in series [1] (C57BL/6J, mouse, plasma, ip, i.p. 200 mg kg^−1 bw, read-out: initial plasma concentration (C0)) is 7280 ng/mL. Moreover, the half-life in series [1] (C57BL/6J, mouse, plasma, ip, i.p. 200 mg kg^−1 bw, read-out: plasma half-life (T1/2)) came out at 34.5 min. Also, in series [1] (estimated from T1/2 and C0), the clearance is on record as 0.552 L min^−1 kg^−1 bw and the “volume of distribution (Vd)” value is 27.5 L kg^−1 bw. Also, in series [2], the “activity in 8 other bioassays” value is listed as “no known activities”. Further, the Ames test result in series [3] was “negative”.
